Laboratory results: patent publication US20240165113A1, “METHODS OF TREATMENT FOR LEUKEMIA” (DNA SEQ 2, Inc., priority 2021, published 2024)
Where two headings read alike, the source gives them in different places.

Biological target: T1, unphosphorylated ABL1(T315I)(229-499) (Homo sapiens, UniProt P00519, T315I)
T1 construct: The recombinant ABL1(T315I) (isoform 1a) residues 229-499 protein was designed with an N-terminal 10×His tag; made in house; host or cells: E. coli (co-expressed with YopH phosphatase and pGro7 chaperone)
T1 sequence (P00519 229-499 T315I): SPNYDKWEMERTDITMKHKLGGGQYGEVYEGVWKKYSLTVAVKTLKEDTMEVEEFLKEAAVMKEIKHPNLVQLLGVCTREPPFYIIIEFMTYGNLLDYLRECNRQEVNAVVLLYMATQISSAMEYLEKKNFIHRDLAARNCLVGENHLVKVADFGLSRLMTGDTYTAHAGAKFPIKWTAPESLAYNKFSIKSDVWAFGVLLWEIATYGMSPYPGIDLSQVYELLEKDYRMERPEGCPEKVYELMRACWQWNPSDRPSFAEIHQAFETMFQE
Experiment: SPR binding to unphosphorylated ABL1(T315I)(229-499)
Details: Ni-NTA capture of 10xHis-tag

Q: `Nc1nc(N)c(N=O)c(OCC2CCCCC2)n1` [A-0001, 6-Cyclohexylmethyloxy-5-nitroso-pyrimidine-2,4-diamine] was tested. Which Kd (HBST buffer, read-out: Unphosphorylated ABL1(T315I)(229-499) in HBST buffer KD) did it give?
A: The Kd was 2 µM.

Q: What about the Kd (PBST buffer, read-out: Unphosphorylated ABL1(T315I)(229-499) in PBST buffer KD) of the same molecule?
A: The Kd was 5 µM.
